From ChEMBL document CHEMBL3227939, “Synthesis of daunorubicin analogues with novel 9-acyl substituents” (1979) come the findings set out here.

Assay [1] relates to L1210. Put plainly: Inhibition of RNA synthesis in mouse L1210 cells. To be noted: read-out: ED50 (the source's name). The class given is functional.
Assay [2] concerns L1210. In words: Inhibition of DNA synthesis in mouse L1210 cells. The class given is functional. To be noted: read-out: ED50 (the source's name).
The subject of assay [3] is P388. Put plainly: Antitumor activity against mouse P388 cells allografted in CDF/RDF mouse assessed as increase in survival time at 50 mg/kg, ip administered once daily on day 5, 9 and 13 relative to control. The format is functional. To be noted: route intraperitoneal.
Another assay relates to Calf thymus DNA. Put plainly: Binding affinity to calf thymus DNA assessed as change in melting temperature. Particulars: Bos taurus. The format is nucleic-acid assay.
In assay [4] the test system is P388. Put plainly: Antitumor activity against mouse P388 cells allografted in CDF/RDF mouse assessed as increase in survival time at 4 mg/kg, ip administered once daily on days 1 to 9 relative to control. The class given is functional. To be noted: route intraperitoneal.
Assay [5] deals with P388. In words: Antitumor activity against mouse P388 cells allografted in CDF/RDF mouse assessed as increase in survival time at 3.13 mg/kg, ip administered once daily on days 1 to 9 relative to control. Particulars: route intraperitoneal. The class given is functional.
For assay [6], the system named is P388. Put plainly: Antitumor activity against mouse P388 cells allografted in CDF/RDF mouse assessed as increase in survival time at 37.5 mg/kg, ip administered once daily on day 5, 9 and 13 relative to control. The class given is functional. Particulars: route intraperitoneal.
Assay [7] relates to P388. Put plainly: Antitumor activity against mouse P388 cells allografted in CDF/RDF mouse assessed as increase in survival time at 12.5 mg/kg, ip administered once daily on day 5, 9 and 13 relative to control. The class given is functional. To be noted: route intraperitoneal.

Structures are written as SMILES.

`COc1cccc2c1C(=O)c1c(O)c3c(c(O)c1C2=O)C[C@@](O)(C(C)=O)C[C@@H]3O[C@H]1C[C@H](N)[C@H](O)[C@H](C)O1` [DAUNORUBICIN]: the EC50 with L1210 [1] is 330 nM; in the assay with L1210 [2] it was 660 nM.
The T/C is the ratio of treated to control. The term ΔTm denotes the shift of the melting midpoint relative to a reference. As for `COc1cccc2c1C(=O)c1c(O)c3c(c(O)c1C2=O)C[C@@](O)(C=O)C[C@@H]3O[C@H]1C[C@H](N)[C@H](O)[C@H](C)O1`, the T/C with P388 [3] was 154%; in the assay on P388 [4], 169%. Further, the EC50 in the assay with L1210 [1] worked out at 2000 nM; with L1210 [2], 4100 nM. For the same molecule, the ΔTm in the assay with Calf thymus DNA was determined as 6.5 °C.
`COc1cccc2c1C(=O)c1c(O)c3c(c(O)c1C2=O)C[C@@](O)(C(=O)C(C)C)C[C@@H]3O[C@H]1C[C@H](N)[C@H](O)[C@H](C)O1`: the EC50 in the assay with L1210 [1] was 400 nM; with L1210 [2], 1000 nM. For the same molecule, the thermal shift (ΔTm) in the assay on Calf thymus DNA came to 10.3 °C. For the same molecule, the T/C in the assay on P388 [5] worked out at 117%; in the assay with P388 [6] it was 122%.
Take `CCC(=O)[C@]1(O)Cc2c(O)c3c(c(O)c2[C@@H](O[C@H]2C[C@H](N)[C@H](O)[C@H](C)O2)C1)C(=O)c1c(OC)cccc1C3=O`: the EC50 was 290 nM with L1210 [1] and 670 nM in the assay with L1210 [2]. The ΔTm in the assay on Calf thymus DNA was 11 °C. Besides, the T/C in the assay on P388 [7] amounted to 128%.
As for `COc1cccc2c1C(=O)c1c(O)c3c(c(O)c1C2=O)C[C@@](O)(C(=O)CCc1ccccc1)C[C@@H]3O[C@H]1C[C@H](N)[C@H](O)[C@H](C)O1`, the T/C in the assay with P388 [3] is on record as 129%. Besides, the EC50 stood at 1600 nM in the assay on L1210 [1] and 1500 nM in the assay with L1210 [2]. In addition, the ΔTm with Calf thymus DNA was 8.6 °C.
Regarding `COc1cccc2c1C(=O)c1c(O)c3c(c(O)c1C2=O)C[C@@](O)(C(=O)CO)C[C@@H]3O[C@H]1C[C@H](N)[C@H](O)[C@H](C)O1` [DOXORUBICIN], the EC50 in the assay with L1210 [1] worked out at 580 nM; in the assay with L1210 [2], 1500 nM.
